Columns and labels:
hCB2R = target: T1, hCB2R (Homo sapiens, UniProt P34972); test: HitHunter cAMP assay: inhibition of FSK-stimulated cAMP accumulation in CHO cells; format: cell-based
T1 construct: host or cells: HitHunter CHO-K1 cells
Protocol: For the cAMP inhibition assay, cells were treated with 10 μM FSK and synthetized compounds for 90 min to assess compound concentration-dependent activity.
CHO cells stably expressing hCB1R or hCB2R were maintained at 37 °C and 5% CO2 in Gibco Ham’s F-12 nutrient mix (Fisher Scientific, Loughborough, UK ) supplemented with 2 mM L-glutamine, 10% fetal bovine serum (FBS), 0.6% penicillin−streptomycin (Fisher Scientific, Loughborough UK), and the disulfate salt of geneticin (G418) as previously described (Sigma-Aldrich, Poole, UK). For subsequent radioligand displacement assays, membranes were prepared by scraping cells from flasks, centrifuging the cells, and storing the cell pellet at −20 °C. When required for us, cell pellets were defrosted and diluted in tris buffer (50 mM Tris-HCl and 50 mM Tris-base). As we have described in previous studies, HitHunter (cAMP) and PathHunter (βarrestin2) CHO-K1 cells stably expressing hCB1R or hCB2R from DiscoveRx® (Eurofins, Fremont, CA, USA) were maintained at 37 °C, 5% CO2 in F-12 DMEM containing 10% FBS and 1% Pen/Strep with 800 µg/mL geneticin (HitHunter) or 800 µg/mL G418 and 300 µg/mL hygromycin B (PathHunter).
The quantification of FSK-stimulated cAMP accumulation using the DiscoveRx HitHunter assay (DiscoveRx, Eurofins, Fremont, CA, USA) has been described in detail previously elsewhere. Briefly, 20,000 cells/well were plated in low-volume 96-well plates and incubated overnight in Opti-MEM with 1% FBS at 37 °C and 5% CO2. The next day, the media were replaced with cell assay buffer (DiscoveRx). Immediately after this, the cells were simultaneously treated with 10 µM FSK and ligands for 90 min. Subsequent additions of cAMP antibody solution and cAMP working detection solutions followed the manufacturer’s directions (DiscoveRx) and cells were stored for 60 min at room temperature. cAMP solution A (DiscoveRx) was added according to the manufacturer’s directions followed by another 60 min room temperature incubation prior to chemiluminescence being measured on a Cytation5 plate reader (top read, gain 200, integration time 10,000 ms).
Estimates of Ki, EC50, and Emax were determined using non-linear regression three-parameters (GraphPad, Prism, v. 9.0).
Data are fitted to a non−linear regression (three parameter model, GraphPad v. 9.0). Data are mean ± S.E.M. of 6 independent experiments performed in triplicate.

SH-SY5Y cells = test: Sulforhodamine B (SRB) cell viability assay; format: cell-based, human
Protocol: We tested the anti-proliferative activity of the novel CB2R agonists FG158a, FG160a, FG161a, and LV62 in neuroblastoma cell lines (Figure 4). The compounds were assayed as a mixture of cis and trans isomers. […] After 72 h of treatment, the effect was higher and could also be observed at lower concentrations. The inhibitory effect was confirmed in another neuroblastoma cell line, SK-N-BE cells.
Human neuroblastoma SHSY5Y and SK-N-BE cell lines were grown in DMEM (GIBCO, Paisley, UK) and MEM (Sigma-Aldrich, St.Louis, MO, USA), respectively, supplemented with 2 mM l-glutamine, […], 50 units/mL penicillin and 10% heat-inactivated fetal bovine serum (FBS) in a humidified atmosphere (5% CO2 at 37 °C). Cells were detached as previously described with 0.25% trypsin (Sigma-Aldrich) at 70–80% confluence.
Cells seeded for 24 h in triplicate in 96-well plates at a density of 8000 cells/well were left to adhere overnight. CB2R agonists were added to the culture in triplicate at concentrations ranging from 2.5–40 µM. After 24 h, 48 h, and 72 h, cells were fixed, shaking for 2 h at 4 °C with 50% v/v trichloroacetic acid and washed with distilled water. Cells left overnight to dry were stained with 0.4% w/v SRB in 1% v/v acetic acid (at room temperature for 30 min on a shaker) and then washed with 1% acetic acid to allow for the removal of the unbound dye. TRIS-HCl 10 mM, pH 7.4 was added to the cells and absorbance was measured at 495 nm as previously shown using a Glomax® Discover Microplate Reader (Promega, Madison, WI, USA). In combinatory assays, similar procedures were adopted and the CB2R antagonist SR144528 (1 µM) was added 1 h before the CB2 agonists (10, 20 and 40 µM) to SHSY5Y cells that were harvested as described above after 72 h of incubation.
Figure 4 Inhibition of cell viability. The effect on cell viability by CB2R agonists was determined by sulforhodamine B (SRB) assays in SH-SY5Y and SK-N-BE cell lines. SH-SY5Y cells were treated with the compounds indicated in the figure for 24 h (A), 48 h (B), and 72 h (C) at the concentrations reported in the histograms. SK-N-BE cells were treated with the same compounds for 72 h (D). Figures report cell viability (mean of at least 3 independent experiments ± SEM) as percent of cell survival vs. untreated cells (considered as 100% of survival). […] The statistical significance was calculated with two-way ANOVA using Dunnett’s multiple comparisons test.

T1 sequence (P34972 whole entry): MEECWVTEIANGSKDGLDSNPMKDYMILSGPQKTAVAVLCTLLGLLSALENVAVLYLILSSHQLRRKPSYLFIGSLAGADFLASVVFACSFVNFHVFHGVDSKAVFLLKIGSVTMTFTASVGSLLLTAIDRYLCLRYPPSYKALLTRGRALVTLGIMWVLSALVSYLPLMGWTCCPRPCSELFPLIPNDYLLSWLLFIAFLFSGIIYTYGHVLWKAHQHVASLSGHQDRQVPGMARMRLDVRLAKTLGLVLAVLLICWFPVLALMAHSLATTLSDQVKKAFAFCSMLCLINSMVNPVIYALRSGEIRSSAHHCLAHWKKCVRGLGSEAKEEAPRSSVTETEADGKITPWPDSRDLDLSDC

CC1CCC(NC(=O)c2cc3cccnc3n(CCCCCBr)c2=O)CC1 (centres unmarked) [FG158a, 1-(5-bromopentyl)-N-(4-methylcyclohexyl)-2-oxo-1,2-dihydro-1,8-naphthyridine-3-carboxamide]
melting point: 121 to 123 °C
EC50 (hCB2R): > 10 µM
modulation of cAMP response (hCB2R; CHO cells expressing hCB2R, 10 μM FSK, 90 min): not to affect this signaling pathway
effect on cell viability (SH-SY5Y cells; 24 h, 48 h and 72 h, 2.5–40 µM): inhibited cell viability
IC50 (SH-SY5Y cells; Homo sapiens, 72 h of treatment, SRB, cis/trans mixture): 11.8 µM
